Inhibition and residual activity data for 2 molecules are collected here from ChEMBL document CHEMBL4507265 (2021).

The target of series [1] is Histamine H3 receptor (Homo sapiens) (UniProt Q9Y5N1). The conditions noted are these: Compound concentration 10.0 uM.
The subject of series [2] is Epidermal growth factor receptor (Homo sapiens), P00533 [UNDEFINED MUTATION]. The conditions noted are these: Compound concentration 1000.0 nM.
Series [3] has as its target Sodium-dependent dopamine transporter (Homo sapiens) (UniProt Q01959). The conditions noted are these: Compound concentration 10.0 uM.
Series [4] concerns the target Neuropeptide Y receptor type 1 (Homo sapiens) (UniProt P25929). As to the kind of experiment: Inhibition of Neuropeptide Y Y1 at 10 µM in the Eurofins-Panlabs radioligand binding assay (Eurofins_assay_257010). Particulars: Compound concentration 10.0 uM; call rule not given here.
Series [5] deals with D(2) dopamine receptor (Homo sapiens) (UniProt P14416). The conditions noted are these: Compound concentration 10.0 uM.
The target in series [6] is B2 bradykinin receptor (Homo sapiens) (UniProt P30411). Particulars: Compound concentration 10.0 uM.
In a further series the target is hERG (KCNH2) (Homo sapiens, UniProt Q12809). As to the kind of experiment: Inhibition of Potassium Channel hERG at 10 µM in the Eurofins-Panlabs radioligand binding assay (Eurofins_assay_265900). Particulars: HEK-293 cells that express recombinant human hERG, probe [3H] Astemizole, 1.5 nM, compound concentration 10 uM. More on the design: ligand concentration 1.5 nM, non-specific ligand with concentration Astemizole, incubation time 60 min, incubation temperature 25 °C.

The target of series [7] is Histamine H1 receptor (Homo sapiens) (UniProt P35367). The conditions noted are these: Compound concentration 10.0 uM.
The target in series [8] is Adenosine receptor A2a (Homo sapiens) (UniProt P29274). Particulars: Compound concentration 10.0 uM.
The species entered for a further series is Mus musculus. As to the kind of experiment: Inhibition of Phorbol Ester at 10 µM in the Eurofins-Panlabs radioligand binding assay (Eurofins_assay_264500). More on the design: ligand concentration 3 nM. Particulars: Compound concentration 10.0 uM.
For series [9], the target named is D(1A) dopamine receptor (Homo sapiens) (UniProt P21728). The conditions noted are these: Compound concentration 10.0 uM.
In series [10] the target is T1, Muscarinic acetylcholine receptor M1 (Homo sapiens) (UniProt P11229).
T1 sequence (whole entry): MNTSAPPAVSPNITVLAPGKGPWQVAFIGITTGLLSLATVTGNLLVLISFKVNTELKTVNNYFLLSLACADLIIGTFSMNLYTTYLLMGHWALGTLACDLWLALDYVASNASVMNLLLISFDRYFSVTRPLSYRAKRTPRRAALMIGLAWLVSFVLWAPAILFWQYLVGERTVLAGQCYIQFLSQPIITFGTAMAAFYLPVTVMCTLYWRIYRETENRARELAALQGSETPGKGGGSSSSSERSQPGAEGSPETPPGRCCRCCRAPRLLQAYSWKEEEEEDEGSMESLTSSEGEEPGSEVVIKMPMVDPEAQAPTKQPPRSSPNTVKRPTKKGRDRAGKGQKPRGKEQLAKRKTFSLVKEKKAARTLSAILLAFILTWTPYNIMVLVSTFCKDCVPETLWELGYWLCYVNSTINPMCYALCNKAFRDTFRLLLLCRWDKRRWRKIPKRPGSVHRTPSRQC
Particulars: Compound concentration 10.0 uM.

For series [11], the target named is T2, Alpha-1A adrenergic receptor (Homo sapiens) (UniProt P35348).
T2 sequence (whole entry): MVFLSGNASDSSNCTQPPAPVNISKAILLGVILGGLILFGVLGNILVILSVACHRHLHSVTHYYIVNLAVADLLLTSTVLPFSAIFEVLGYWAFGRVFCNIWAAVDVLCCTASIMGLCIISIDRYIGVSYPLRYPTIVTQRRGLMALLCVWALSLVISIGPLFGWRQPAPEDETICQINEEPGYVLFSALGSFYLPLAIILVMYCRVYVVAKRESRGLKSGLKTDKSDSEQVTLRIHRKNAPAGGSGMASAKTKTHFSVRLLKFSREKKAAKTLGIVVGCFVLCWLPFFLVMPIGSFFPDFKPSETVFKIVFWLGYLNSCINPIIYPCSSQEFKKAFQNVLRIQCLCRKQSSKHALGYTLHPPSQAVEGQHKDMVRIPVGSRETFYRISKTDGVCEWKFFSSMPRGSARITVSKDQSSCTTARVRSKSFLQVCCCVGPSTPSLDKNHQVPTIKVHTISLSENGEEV
The conditions noted are these: Rattus norvegicus; Compound concentration 10.0 uM.

The target in series [12] is T3, Alpha-1D adrenergic receptor (Homo sapiens) (UniProt P25100).
T3 sequence (whole entry): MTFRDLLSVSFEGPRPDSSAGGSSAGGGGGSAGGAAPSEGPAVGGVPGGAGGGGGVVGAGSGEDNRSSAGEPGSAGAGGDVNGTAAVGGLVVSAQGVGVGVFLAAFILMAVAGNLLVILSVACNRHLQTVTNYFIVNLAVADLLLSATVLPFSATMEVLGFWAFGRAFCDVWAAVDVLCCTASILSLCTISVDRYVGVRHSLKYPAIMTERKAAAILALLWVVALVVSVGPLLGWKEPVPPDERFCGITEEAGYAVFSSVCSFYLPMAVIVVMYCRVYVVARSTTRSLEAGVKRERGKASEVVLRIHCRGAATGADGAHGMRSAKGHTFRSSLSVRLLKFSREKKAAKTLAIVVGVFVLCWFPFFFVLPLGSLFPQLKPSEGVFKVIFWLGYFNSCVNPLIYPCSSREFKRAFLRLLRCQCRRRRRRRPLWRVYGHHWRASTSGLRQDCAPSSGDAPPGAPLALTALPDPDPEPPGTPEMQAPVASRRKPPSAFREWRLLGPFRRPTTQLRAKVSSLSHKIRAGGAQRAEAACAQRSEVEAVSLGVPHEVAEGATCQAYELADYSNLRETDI
As to the kind of experiment: Inhibition of Adrenergic alpha1D at 10 µM in the Eurofins-Panlabs radioligand binding assay (Eurofins_assay_203400). Particulars: Compound concentration 10.0 uM.

The target in series [13] is T4, 5-hydroxytryptamine receptor 1A (Homo sapiens) (UniProt P08908).
T4 sequence (whole entry): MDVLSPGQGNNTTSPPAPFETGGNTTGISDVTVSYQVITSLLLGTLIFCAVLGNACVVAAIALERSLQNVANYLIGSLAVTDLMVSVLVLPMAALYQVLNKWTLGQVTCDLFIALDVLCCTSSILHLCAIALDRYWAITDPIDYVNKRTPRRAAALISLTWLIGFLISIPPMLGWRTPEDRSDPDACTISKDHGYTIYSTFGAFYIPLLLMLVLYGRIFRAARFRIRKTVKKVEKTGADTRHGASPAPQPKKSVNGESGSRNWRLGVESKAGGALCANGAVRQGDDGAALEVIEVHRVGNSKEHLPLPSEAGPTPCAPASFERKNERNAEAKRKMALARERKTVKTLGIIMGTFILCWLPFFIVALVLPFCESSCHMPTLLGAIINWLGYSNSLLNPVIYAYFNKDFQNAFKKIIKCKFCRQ
Particulars: Compound concentration 10.0 uM.

Series [14] has as its target Glutamate NMDA receptor (Rattus norvegicus) (UniProt P35439+Q00959+Q00960+Q00961+Q62645+Q8VHN2+Q9R1M7). The conditions noted are these: Compound concentration 10.0 uM.
Series [15] concerns the target Delta-type opioid receptor (Homo sapiens) (UniProt P41143). The conditions noted are these: Compound concentration 10.0 uM.

Each structure is given as a SMILES string.

Chain of Delta-type opioid receptor (Homo sapiens) (P41143 whole entry): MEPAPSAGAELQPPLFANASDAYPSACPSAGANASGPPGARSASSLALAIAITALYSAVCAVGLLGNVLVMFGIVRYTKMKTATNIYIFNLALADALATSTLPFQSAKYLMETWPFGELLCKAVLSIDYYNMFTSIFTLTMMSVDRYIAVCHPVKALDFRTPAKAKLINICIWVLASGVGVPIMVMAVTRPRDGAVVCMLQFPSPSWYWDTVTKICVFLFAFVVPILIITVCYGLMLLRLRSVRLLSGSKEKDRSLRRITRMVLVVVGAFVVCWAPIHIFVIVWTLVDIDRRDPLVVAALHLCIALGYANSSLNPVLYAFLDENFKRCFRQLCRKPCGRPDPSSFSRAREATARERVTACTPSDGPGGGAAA
Chain of B2 bradykinin receptor (Homo sapiens) (P30411 whole entry): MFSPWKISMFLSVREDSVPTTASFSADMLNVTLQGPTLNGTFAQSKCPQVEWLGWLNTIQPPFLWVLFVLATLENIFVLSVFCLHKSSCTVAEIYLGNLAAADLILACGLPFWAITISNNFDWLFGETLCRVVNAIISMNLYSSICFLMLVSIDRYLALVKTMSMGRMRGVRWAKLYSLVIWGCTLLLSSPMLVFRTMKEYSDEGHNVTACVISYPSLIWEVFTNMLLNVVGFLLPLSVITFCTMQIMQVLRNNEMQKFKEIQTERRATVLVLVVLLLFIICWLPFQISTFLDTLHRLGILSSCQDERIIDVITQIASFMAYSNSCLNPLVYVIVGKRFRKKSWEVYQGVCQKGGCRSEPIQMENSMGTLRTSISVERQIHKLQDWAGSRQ
Chain of D(2) dopamine receptor (Homo sapiens) (P14416 whole entry): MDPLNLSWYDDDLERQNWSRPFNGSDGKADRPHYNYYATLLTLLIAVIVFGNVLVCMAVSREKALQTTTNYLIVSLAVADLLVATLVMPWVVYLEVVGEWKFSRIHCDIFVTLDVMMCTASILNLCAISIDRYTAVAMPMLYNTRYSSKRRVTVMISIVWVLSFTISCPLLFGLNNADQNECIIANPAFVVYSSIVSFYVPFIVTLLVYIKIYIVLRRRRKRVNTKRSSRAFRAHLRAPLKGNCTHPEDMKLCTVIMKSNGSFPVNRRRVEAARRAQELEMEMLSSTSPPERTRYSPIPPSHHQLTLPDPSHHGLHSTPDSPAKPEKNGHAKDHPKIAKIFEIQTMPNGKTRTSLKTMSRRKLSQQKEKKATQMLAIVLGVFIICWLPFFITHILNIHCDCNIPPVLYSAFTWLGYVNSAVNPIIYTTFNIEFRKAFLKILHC
Chain of Sodium-dependent dopamine transporter (Homo sapiens) (Q01959 whole entry): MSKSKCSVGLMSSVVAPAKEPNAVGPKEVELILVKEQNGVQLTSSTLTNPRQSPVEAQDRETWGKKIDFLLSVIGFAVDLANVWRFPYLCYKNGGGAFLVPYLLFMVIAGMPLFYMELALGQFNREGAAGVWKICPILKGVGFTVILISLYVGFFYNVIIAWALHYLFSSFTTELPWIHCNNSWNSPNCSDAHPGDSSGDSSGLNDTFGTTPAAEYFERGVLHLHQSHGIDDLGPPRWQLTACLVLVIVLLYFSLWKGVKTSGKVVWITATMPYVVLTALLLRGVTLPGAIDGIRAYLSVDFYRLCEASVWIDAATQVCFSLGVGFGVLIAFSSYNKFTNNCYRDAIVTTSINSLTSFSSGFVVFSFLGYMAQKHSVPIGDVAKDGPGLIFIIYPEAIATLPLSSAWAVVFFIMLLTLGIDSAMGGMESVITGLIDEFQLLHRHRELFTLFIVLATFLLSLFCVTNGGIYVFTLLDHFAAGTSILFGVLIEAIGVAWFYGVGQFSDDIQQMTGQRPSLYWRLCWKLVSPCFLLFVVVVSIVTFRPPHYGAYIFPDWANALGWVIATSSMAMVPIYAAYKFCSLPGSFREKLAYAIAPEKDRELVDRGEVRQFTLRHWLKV
Chain of Histamine H1 receptor (Homo sapiens) (P35367 whole entry): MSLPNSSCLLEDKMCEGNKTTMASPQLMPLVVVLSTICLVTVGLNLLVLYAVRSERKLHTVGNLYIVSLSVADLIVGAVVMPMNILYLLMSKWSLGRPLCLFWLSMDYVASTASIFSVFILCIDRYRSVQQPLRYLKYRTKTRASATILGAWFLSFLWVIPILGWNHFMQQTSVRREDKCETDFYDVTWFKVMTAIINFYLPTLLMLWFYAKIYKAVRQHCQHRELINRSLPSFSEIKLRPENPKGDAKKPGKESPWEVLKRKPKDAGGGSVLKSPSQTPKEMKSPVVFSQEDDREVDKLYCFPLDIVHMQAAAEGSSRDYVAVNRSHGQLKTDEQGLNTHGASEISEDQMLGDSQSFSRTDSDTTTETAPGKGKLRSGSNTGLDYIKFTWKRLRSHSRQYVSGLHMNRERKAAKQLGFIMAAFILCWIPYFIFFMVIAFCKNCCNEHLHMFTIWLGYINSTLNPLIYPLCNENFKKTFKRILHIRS
Chain of Adenosine receptor A2a (Homo sapiens) (P29274 whole entry): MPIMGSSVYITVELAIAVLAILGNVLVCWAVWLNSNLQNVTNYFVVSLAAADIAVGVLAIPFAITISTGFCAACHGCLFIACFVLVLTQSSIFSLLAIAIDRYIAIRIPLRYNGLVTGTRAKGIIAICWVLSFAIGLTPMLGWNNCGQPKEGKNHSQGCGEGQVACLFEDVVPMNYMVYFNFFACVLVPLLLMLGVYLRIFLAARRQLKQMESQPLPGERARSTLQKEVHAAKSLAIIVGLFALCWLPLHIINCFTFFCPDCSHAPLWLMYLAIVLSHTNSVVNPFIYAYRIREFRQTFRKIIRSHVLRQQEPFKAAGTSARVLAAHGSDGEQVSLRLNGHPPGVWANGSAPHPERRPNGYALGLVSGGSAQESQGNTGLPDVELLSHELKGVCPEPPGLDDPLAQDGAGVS
Chain of D(1A) dopamine receptor (Homo sapiens) (P21728 whole entry): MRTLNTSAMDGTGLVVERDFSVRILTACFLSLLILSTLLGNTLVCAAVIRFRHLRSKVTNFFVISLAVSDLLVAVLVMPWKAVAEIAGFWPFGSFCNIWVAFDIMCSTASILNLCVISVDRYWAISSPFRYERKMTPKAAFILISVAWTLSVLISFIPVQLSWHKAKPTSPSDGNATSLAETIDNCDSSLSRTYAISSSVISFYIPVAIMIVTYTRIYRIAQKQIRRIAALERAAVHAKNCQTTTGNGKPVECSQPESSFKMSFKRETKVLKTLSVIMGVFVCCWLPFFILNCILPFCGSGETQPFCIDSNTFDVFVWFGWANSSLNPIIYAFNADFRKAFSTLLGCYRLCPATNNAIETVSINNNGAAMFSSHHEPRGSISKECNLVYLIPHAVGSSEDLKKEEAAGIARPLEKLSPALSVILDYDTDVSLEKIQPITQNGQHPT
Chain of Neuropeptide Y receptor type 1 (Homo sapiens) (P25929 whole entry): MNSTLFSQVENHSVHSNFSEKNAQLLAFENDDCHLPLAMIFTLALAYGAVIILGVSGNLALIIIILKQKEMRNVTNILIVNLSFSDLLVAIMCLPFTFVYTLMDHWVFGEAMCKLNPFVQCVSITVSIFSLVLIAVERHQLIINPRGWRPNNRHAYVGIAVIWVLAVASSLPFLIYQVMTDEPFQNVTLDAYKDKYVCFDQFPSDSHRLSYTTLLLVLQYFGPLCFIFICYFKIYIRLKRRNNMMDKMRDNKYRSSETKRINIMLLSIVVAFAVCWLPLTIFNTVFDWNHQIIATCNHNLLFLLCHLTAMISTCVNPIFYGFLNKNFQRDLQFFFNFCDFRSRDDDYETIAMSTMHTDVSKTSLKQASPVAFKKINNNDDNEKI
Chain of Epidermal growth factor receptor (Homo sapiens), P00533 [UNDEFINED MUTATION] (P00533 whole entry, looked up, change not shown): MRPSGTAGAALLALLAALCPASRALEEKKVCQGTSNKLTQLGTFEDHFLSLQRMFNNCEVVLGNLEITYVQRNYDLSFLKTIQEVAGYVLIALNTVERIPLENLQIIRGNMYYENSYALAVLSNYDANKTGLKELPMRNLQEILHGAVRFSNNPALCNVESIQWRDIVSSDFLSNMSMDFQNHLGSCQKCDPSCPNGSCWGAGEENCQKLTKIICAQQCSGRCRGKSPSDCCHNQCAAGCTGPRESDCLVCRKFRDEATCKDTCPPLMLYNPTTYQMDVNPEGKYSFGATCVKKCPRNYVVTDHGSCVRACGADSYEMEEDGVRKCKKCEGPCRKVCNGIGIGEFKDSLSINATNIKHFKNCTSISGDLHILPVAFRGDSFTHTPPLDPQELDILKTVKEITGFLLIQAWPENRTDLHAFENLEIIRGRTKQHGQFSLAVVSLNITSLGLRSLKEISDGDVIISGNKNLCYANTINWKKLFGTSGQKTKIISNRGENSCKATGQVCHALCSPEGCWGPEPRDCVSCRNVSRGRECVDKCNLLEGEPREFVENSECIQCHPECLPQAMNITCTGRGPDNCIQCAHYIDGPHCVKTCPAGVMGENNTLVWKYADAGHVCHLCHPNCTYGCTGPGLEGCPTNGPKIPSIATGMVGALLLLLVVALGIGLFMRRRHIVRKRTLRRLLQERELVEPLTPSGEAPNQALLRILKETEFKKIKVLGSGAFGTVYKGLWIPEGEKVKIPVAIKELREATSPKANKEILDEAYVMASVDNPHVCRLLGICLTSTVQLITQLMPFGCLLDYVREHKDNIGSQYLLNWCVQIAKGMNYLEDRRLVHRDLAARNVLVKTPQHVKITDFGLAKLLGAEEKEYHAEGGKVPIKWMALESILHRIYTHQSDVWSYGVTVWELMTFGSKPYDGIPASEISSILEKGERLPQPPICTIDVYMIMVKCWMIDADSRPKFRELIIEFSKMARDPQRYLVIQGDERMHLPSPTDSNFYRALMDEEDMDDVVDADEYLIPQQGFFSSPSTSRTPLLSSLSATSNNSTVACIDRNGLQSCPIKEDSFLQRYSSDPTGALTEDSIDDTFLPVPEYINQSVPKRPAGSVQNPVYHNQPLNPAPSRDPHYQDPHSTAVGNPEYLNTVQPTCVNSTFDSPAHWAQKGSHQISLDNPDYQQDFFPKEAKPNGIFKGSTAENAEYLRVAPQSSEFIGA

As for `NS(=O)(=O)c1cc(NC(=O)C2(c3ccccc3Cl)CC2)ccc1Oc1cccc(Cl)c1` [BAY-207], the inhibition in [1] was 3.87%. Further, in series [2], the residual activity was 75%.

For the molecule `NS(=O)(=O)c1cc(NC(=O)Cc2ccccc2)ccc1Oc1cccc(Cl)c1` [BAY-1797], the inhibition was 37% in series [3]; 9% in series [4]; 15% in [5]; 10% in [6]; 15% in series [7]; 14% in series [8]. The inhibition in the series filed under Mus musculus was 4%; in series [9], 11%; in series [10] it was -6%; in [11], 16%; in series [12] it was 5%; in [13], 7%. In addition, the inhibition in series [14] is -9%; in [15] it was 4%. Besides, on hERG (KCNH2), the inhibition at 60 min, 10 µM was 8% (not active).
